Results reported in patent US6310093A (priority 1998, dated 2001).

Columns and labels:
[1] = molecular target: T1, glutaminase (brain membranes) (Rattus norvegicus, UniProt P13264); assay: biochemical
T1 construct: Membranes are prepared by homogenization of brain tissue in 330 mM sucrose; from tissue; host or cells: rat brain, crude membranes (17000 G pellet)
T1 sequence (P13264 73-674 limits assumed): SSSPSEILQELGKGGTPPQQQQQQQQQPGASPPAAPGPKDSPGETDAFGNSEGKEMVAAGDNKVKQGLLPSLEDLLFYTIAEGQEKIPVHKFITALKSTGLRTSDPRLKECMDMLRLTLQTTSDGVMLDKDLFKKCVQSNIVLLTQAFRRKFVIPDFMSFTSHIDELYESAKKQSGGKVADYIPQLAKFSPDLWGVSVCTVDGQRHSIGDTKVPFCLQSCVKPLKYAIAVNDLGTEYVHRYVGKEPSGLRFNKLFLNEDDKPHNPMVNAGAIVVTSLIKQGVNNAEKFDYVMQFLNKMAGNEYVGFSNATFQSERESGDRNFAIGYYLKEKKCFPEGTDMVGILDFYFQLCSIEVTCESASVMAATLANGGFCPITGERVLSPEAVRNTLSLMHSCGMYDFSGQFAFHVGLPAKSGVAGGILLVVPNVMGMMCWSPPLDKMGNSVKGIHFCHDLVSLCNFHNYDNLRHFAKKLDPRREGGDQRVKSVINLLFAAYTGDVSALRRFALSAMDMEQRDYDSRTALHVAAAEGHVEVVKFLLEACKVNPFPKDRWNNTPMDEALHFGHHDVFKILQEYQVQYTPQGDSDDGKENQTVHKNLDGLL

[2] = tested on: glial cultures (astrocytes); settings: Hertz; Drejer; read-out: Km for cellular uptake of glutamate; cited from earlier work
[3] = tested on: glial cultures (astrocytes); type: cell-based, mouse (Swiss Webster)
isolated neurons = settings: Rosenberg; Dugan et al., 1995; read-out: IC50 for toxicity of glutamate on isolated neurons; cited from earlier work
neuronal cultures = assay: Glutamate uptake (clearance) by neuronal cultures; type: cell-based, mouse (Swiss Webster); settings: intact neurons
Procedure: (§1) This allows expression of medium glutamate concentrations as:
(§2) where [Glu], in units of μM, is the concentration of glutamate in the 0.4 ml of medium in a culture well, S (in μM/min) is the rate of addition of glutamate to the culture medium from cellular sources, and k (in min^-1) is the empirically determined rate constant for clearance (Roberts). […] Although the value of k is proportional to cell (carrier) density, little variation is expected in cultures containing glia, as glial cultures are confluent.
(§3) where [Glu], in units of μM, is the concentration of glutamate in the 0.4 ml of medium in a culture well, S (in μM/min) is the rate of addition of glutamate to the culture medium from cellular sources, and k (in min^-1) is the empirically determined rate constant for clearance (Roberts, D. V. (1977) Enzyme Kinetics, Cambridge University Press, Cambridge, pp23-30.). […] Although the value of k is proportional to cell (carrier) density, little variation is expected in cultures containing glia as glial cultures are confluent.

[4] = tested on: mixed glial-neuronal cultures; assay: Glutamate uptake (clearance) by mixed glial-neuronal cultures; type: cell-based, mouse (Swiss Webster)
Procedure: as §1, §2, §3

N[C@@H](CCC(=O)O)C(=O)O [L-glutamic acid]
glutaminase inhibition (in words) [1]: no significant effect on enzyme activity at 3.3 mM
activity at 1000 µM ([1]; read-out: Glutaminase Activity): 105 ± 15%
activity at 3300 µM ([1]; read-out: Glutaminase Activity): 113 ± 32%
Km [2]: ~45 µM
Glutamate uptake (k) [3]: 0.083
first order rate constant for glutamate uptake [3]: 0.083 min⁻¹
glutamate uptake rate of glial vs neuronal cultures [3]: about 7 times
IC50 (isolated neurons): 5 to 10 µM
Glutamate uptake (k) (neuronal cultures): 0.012 min⁻¹
first order rate constant for glutamate uptake ([4]; 15 μM glutamate): 0.072 min⁻¹
Glutamate uptake (k) ([4]; Table 2, glial-neuronal): 0.072
